Assay results: ChEMBL document CHEMBL1764969, “Design, synthesis and structure-activity relationship (SAR) studies of 2,4-disubstituted pyrimidine derivatives: dual activity as cholinesterase and Aβ-aggregation inhibitors” (Bioorg Med Chem, 2011)

How the values were obtained:
Butyrylcholinesterase = Butyrylcholinesterase (Equus caballus, UniProt Q9N1N9)
Description: Inhibition of equine BChE incubated with compounf for 5 mins before addition of substrate S-butyrylthiocholine iodide by Ellman's method

Acetylcholinesterase = Acetylcholinesterase (Homo sapiens, UniProt P22303)
Chain of Acetylcholinesterase (P22303 whole entry): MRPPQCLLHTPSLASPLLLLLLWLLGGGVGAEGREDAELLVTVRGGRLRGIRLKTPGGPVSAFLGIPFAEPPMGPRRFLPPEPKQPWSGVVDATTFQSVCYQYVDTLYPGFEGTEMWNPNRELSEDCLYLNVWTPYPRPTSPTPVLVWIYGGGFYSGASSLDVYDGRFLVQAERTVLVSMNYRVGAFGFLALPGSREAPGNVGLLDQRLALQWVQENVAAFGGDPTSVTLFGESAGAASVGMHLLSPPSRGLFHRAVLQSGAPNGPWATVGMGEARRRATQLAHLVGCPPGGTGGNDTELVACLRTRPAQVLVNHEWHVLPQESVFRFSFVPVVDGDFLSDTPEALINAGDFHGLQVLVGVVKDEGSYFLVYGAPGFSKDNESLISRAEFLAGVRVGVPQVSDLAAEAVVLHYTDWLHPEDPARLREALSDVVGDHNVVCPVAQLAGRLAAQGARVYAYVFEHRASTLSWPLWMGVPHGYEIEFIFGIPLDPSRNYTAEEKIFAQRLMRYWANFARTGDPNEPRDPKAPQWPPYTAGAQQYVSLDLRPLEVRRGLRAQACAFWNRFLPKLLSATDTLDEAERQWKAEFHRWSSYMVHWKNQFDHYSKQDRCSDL
Description: Inhibition of human AChE incubated with compounf for 5 mins before addition of substrate acetylthiocholine iodide by Ellman's method

Chain of Butyrylcholinesterase (Q9N1N9 whole entry): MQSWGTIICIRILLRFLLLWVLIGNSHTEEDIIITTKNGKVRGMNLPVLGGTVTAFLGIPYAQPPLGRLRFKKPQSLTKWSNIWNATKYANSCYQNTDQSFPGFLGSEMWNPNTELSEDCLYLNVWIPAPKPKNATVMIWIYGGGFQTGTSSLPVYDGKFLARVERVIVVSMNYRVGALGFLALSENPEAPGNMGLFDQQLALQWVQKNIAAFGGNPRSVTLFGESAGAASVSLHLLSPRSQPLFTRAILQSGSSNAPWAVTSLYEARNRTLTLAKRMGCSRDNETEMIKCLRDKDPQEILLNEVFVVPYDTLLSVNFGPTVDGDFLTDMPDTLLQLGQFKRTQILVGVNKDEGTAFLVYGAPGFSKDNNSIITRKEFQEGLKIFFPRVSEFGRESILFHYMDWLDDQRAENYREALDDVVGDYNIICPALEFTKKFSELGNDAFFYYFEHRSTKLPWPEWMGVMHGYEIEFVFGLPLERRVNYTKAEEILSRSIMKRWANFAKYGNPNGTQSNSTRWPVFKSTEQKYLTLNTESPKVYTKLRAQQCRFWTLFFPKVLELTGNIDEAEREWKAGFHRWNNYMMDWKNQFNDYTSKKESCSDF

Compound	IC50 (Butyrylcholinesterase) [µM]	IC50 (Acetylcholinesterase) [µM]
c1ccc2c(NCCCCCCCNc3c4c(nc5ccccc35)CCCC4)c3c(nc2c1)CCCC3	0.01	
c1ccc2c(CNc3ccnc(N4CCOCC4)n3)cccc2c1	28	14.7
CC(C)C1CCN(c2nccc(NCc3ccccc3)n2)CC1	6.5	14.2
CC(C)N1CCN(c2nccc(NCc3ccccc3)n2)CC1	3.4	25
CC1CCN(c2nccc(NCc3ccccc3)n2)CC1	3.4	18.4
c1ccc(CNc2ccnc(N3CCN(C4CCCCC4)CC3)n2)cc1	7.6	22.9
CN1CCN(c2nccc(NCc3ccccc3)n2)CC1	> 100	24.9
CN1CCN(c2nccc(NCc3cccc4ccccc34)n2)CC1	2.6	17.5
c1ccc(CNc2ccnc(N3CCNCC3)n2)cc1	> 100	15.5
COCCN1CCN(c2nccc(NCc3ccccc3)n2)CC1	> 100	26.7
c1ccc(CNc2ccnc(N3CCOCC3)n2)cc1		14
CC1CCN(c2nccc(NCc3cccc4ccccc34)n2)CC1	2.2	25.8
O=S1(=O)CCN(c2nccc(NCc3ccccc3)n2)CC1	> 100	24.2
CC(=O)N1CCN(c2nccc(NCCc3ccccc3)n2)CC1	> 100	19.9
c1ccc(CNc2ccnc(NC3CCN(Cc4ccccc4)CC3)n2)cc1	8.2	12.4
c1ccc2c(CNc3ccnc(N4CCCC4)n3)cccc2c1	8.9	5.5
CCCN1CCN(c2nccc(NCc3ccccc3)n2)CC1	59.9	15.3

Compound	IC50 (Butyrylcholinesterase) [µM]	IC50 (Acetylcholinesterase) [µM]
c1ccc(CCNc2ccnc(N3CCOCC3)n2)cc1	> 100	19.7
[O-][S+]1CCN(c2nccc(NCc3ccccc3)n2)CC1	> 100	12.6
c1ccc(CCNc2ccnc(N3CCSCC3)n2)cc1	> 100	26.4
FC(F)(F)c1ccc(CN2CCN(c3nccc(NCc4ccccc4)n3)CC2)cc1	> 100	28.8
CC(=O)N1CCN(c2nccc(NCc3ccccc3)n2)CC1	> 100	16.6
c1ccc(CNc2ccnc(N3CCCC3)n2)cc1	26.4	8.7
Fc1ccc(CN2CCN(c3nccc(NCc4ccccc4)n3)CC2)cc1	7.3	21.6
Brc1ccc(CN2CCN(c3nccc(NCc4ccccc4)n3)CC2)cc1	14.3	25.5
OCCN1CCN(c2nccc(NCc3ccccc3)n2)CC1	> 100	26.4
CN1CCN(c2nccc(NCCc3ccccc3)n2)CC1	> 100	20.4
c1ccc(CNc2ccnc(N3CCSCC3)n2)cc1	6.1	23.2
c1ccc(CCNc2ccnc(N3CCCC3)n2)cc1		9.8
CC1CCN(c2nccc(NCCc3ccccc3)n2)CC1	17.7	8.8
CC(C)(C)OC(=O)N1CCN(c2nccc(NCc3ccccc3)n2)CC1	> 100	18.8
c1ccc2c(CNc3ccnc(N4CCSCC4)n3)cccc2c1		12.8
Clc1ccc(CN2CCN(c3nccc(NCc4ccccc4)n3)CC2)cc1	10.7	20.2
